From article PMC3306375, “A Unique Modification of the Eukaryotic Initiation Factor 5A Shows the Presence of the Complete Hypusine Pathway in Leishmania donovani” (PLoS ONE, 2012)

Assays:
[1] = molecular target: T1, LdDOHH (recombinant L. donovani deoxyhypusine hydroxylase) (Leishmania donovani, UniProt D9IFD5); assay: [3H]hypusine release assay (periodate oxidation), Hill fit; assay type: biochemical; settings: read-out: concentration that inhibited 50% of activity
T1 construct: gene DOHH; full length, 326 aa (981 bp ORF, ~36 kDa), pET30a EcoRI-HindIII, 6xHis tag printed as C-terminal (~6 kDa, kept), ~42 kDa, E. coli BL21(DE3), Ni-NTA
T1 sequence (D9IFD5 1-326): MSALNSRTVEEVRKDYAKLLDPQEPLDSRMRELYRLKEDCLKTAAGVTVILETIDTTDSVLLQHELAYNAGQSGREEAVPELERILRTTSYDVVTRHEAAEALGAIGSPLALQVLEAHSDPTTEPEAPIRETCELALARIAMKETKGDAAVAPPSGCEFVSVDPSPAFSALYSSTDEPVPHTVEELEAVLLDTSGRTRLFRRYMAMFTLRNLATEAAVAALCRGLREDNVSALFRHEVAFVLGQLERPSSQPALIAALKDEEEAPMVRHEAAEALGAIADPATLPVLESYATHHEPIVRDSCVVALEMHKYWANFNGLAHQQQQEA

[2] = molecular target: T2, hDOHH (recombinant human deoxyhypusine hydroxylase) (Homo sapiens, UniProt Q9BU89); assay: [3H]hypusine release assay (periodate oxidation); assay type: biochemical
T2 construct: gene DOHH; hDOHH-pGEX-4T-3, E. coli BL21, GST tag removed with thrombin
T2 sequence (Q9BU89 1-302): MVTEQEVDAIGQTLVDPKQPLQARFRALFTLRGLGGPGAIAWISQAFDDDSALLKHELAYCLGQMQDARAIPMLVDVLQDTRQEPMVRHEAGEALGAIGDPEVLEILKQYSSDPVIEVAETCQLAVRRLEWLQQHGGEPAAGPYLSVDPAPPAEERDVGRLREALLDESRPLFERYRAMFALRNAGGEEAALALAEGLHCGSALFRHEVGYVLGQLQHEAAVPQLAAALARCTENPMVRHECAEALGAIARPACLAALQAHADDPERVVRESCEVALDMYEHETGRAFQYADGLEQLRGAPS

Row | SMILES | IC50 [1] | inhibition at 15 µM [2]
1 | Cc1cc(C2CCCCC2)n(O)c(=O)c1 [ciclopirox olamine] | 13.6 µM | ~32%
2 | N[C@@H](Cn1ccc(=O)c(O)c1)C(=O)O [mimosine] | 13 µM | ~22%
